Experimental data reported in paper PMC7394379, “Structure-guided screening strategy combining surface plasmon resonance with nuclear magnetic resonance for identification of small-molecule Argonaute 2 inhibitors” (PLoS ONE, 2020).
Like-named read-outs stand apart in the source and are kept apart here.

Assays:
[1] = molecular target: T1, AGO2 MID domain (Homo sapiens, UniProt Q9UKV8); assay: 1H-15N HSQC NMR chemical shift perturbation; conditions: 20 °C, pH 6.70, 25 mM sodium phosphate, 150 mM NaCl, 2 mM TCEP; two binding sites suggested, one overlapping AMP
T1 construct: MID domain Gln432-Leu578 (147 residues); pE-SUMOpro-3 His-SUMO fusion, tag removed by SUMO protease 2; E. coli BL21(DE3); 15N-labelled for NMR

[2] = molecular target: T1, AGO2 MID domain; assay: SPR inhibition, immobilised biotin-PEG-UMP versus AGO2 MID domain; type: binding; conditions: HBS-EP+ pH 7.4, 2 mM DTT, 5% DMSO; competition at the 5'-terminal nucleotide site
[3] = molecular target: T1, AGO2 MID domain; assay: as above; type: binding
[4] = molecular target: T1, AGO2 MID domain; assay: as above; type: binding; conditions: read-out: % inhibition at 500 μmol/L
[5] = HBS-EP+ pH 7.4, 2 mM DTT, 5% DMSO, competition at the 5'-terminal nucleotide site

Compound	IC30 [2]	IC50 [3, 5]	other results
COc1ccc(-c2nn(CCC(=O)O)cc2C=C2SC(=S)NC2=O)cc1 [Z56862757]	Three of the hit compounds showed stronger inhibition than BCI-137 in the SPR analysis		1H-15N HSQC NMR chemical shift perturbation [1]: NMR analysis suggests two Z56862757 binding sites, only one site could overlap with AMP
O=c1ccn([C@@H]2O[C@H](COP(=O)(O)O)[C@@H](O)[C@H]2O)c(=O)[nH]1 [UMP]		AMP and UMP showed a stronger inhibition than CMP and GMP	
Nc1ncnc2c1ncn2[C@@H]1O[C@H](CO)[C@@H](O)[C@H]1O [adenosine]			inhibition at 500 µM [4]: < 10%
Nc1ccn([C@@H]2O[C@H](COP(=O)(O)O)[C@@H](O)[C@H]2O)c(=O)n1 [CMP]		AMP and UMP showed a stronger inhibition than CMP and GMP	
COc1cc(C=C2SC(=S)N(C(CCC(=O)O)C(=O)O)C2=O)cc(Cl)c1O (stereo not drawn) [UZI/1999527]	Three of the hit compounds showed stronger inhibition than BCI-137 in the SPR analysis		
Cc1cccc(C(Nc2ccc3c(c2)OC(F)(F)O3)P(=O)(O)O)c1 (stereo not drawn) [Z317095268]	Three of the hit compounds showed stronger inhibition than BCI-137 in the SPR analysis		
Nc1nc2c(ncn2[C@@H]2O[C@H](COP(=O)(O)O)[C@@H](O)[C@H]2O)c(=O)[nH]1 [GMP]		AMP and UMP showed a stronger inhibition than CMP and GMP	
Nc1ncnc2c1ncn2[C@@H]1O[C@H](COP(=O)(O)O)[C@@H](O)[C@H]1O [AMP]			IC50 ([3]; read-out: IC50): ~200 µM
